From patent US6667413B2, “Uracil compounds and use thereof” (Sumitomo Chemical Company, Limited, priority 1999, dated 2003) come the findings set out here.

Holding throughout (format): in vivo
In assay [1] the test system is Broadleaf signalgrass (Brachiaria platyphylla). As to the kind of experiment: Test Example 6: foliar treatment, herbicidal activity index. Further details: key: 0: no or little difference in the degree of germination or growth between the treated and the untreated tested plants at the time of examination; 10: the test plants died complete or their germination or growth was completely inhibited. The conditions noted are these: foliar spray, 4 days after application, index 0 to 10. On the procedure: (§1) A plastic pot (27 cm×19 cm×7 cm) was filled with soil and then seeded with Johnsongrass (Sorghum halepense), Giant foxtail (Setaria faberi), barnyardgrass (Echinochloa crus-galli), large crabgrass (Digitaria sanguinalis), Broadleaf signalgrass (Brachiaria platyphylla) and wild oat (Avena fatua). These test plants were grown in a greenhouse for 25 days. After then, each of the compounds 3-11, 4-22, B and C was formulated into an emulsifiable concentrate according to Formulation Example 2 and then diluted to the prescribed amount with water containing a spreading agent and the dilution was uniformly sprayed over the foliage of the test plants with a sprayer at a rate of 1000 liters per hectare. After the application, the test plants were grown in the greenhouse for 4 days, and the herbicidal activity was examined. (In the Table 9, the test plants are shown as follows. Johnsongrass: J, Giant foxtail: GF, Barnyardgrass: B Large crabgrass: LC, Broadleaf signalgrass: BC wild oat: W

For assay [2], the system named is Giant foxtail (Setaria faberi). Described as above. Further details: key: 0: no or little difference in the degree of germination or growth between the treated and the untreated tested plants at the time of examination; 10: the test plants died complete or their germination or growth was completely inhibited. The conditions noted are these: foliar spray, 4 days after application, index 0 to 10. How it is done: as §1

Assay [3] concerns barnyardgrass (Echinochloa crus-galli). The description is as above. More on the design: key: 0: no or little difference in the degree of germination or growth between the treated and the untreated tested plants at the time of examination; 10: the test plants died complete or their germination or growth was completely inhibited. The conditions noted are these: foliar spray, 4 days after application, index 0 to 10. How it is done: as §1

Assay [4] has as its system Johnsongrass (Sorghum halepense). The description is as above. Further details: key: 0: no or little difference in the degree of germination or growth between the treated and the untreated tested plants at the time of examination; 10: the test plants died complete or their germination or growth was completely inhibited. The conditions noted are these: foliar spray, 4 days after application, index 0 to 10. How it is done:
as §1

Assay [5] concerns large crabgrass (Digitaria sanguinalis). Described as above. More on the design: key: 0: no or little difference in the degree of germination or growth between the treated and the untreated tested plants at the time of examination; 10: the test plants died complete or their germination or growth was completely inhibited. The conditions noted are these: foliar spray, 4 days after application, index 0 to 10. On the procedure: as §1

In the next assay the test system is wild oat (Avena fatua). The description is as above. More on the design: key: 0: no or little difference in the degree of germination or growth between the treated and the untreated tested plants at the time of examination; 10: the test plants died complete or their germination or growth was completely inhibited. The conditions noted are these: foliar spray, 4 days after application, index 0 to 10. On the procedure:
as §1

Assay [6] deals with Ivyleaf morningglory (Ipomoea hederacea). As to the kind of experiment: Test Example 1: foliar treatment, herbicidal activity. The conditions noted are these: foliar spray, 125 g/ha, 7 days after application. How it is done:
(§2) A cylindrical plastic pot having a diameter of 10 cm and a depth of 10 cm was filled with soil and then seeded with Ivyleaf morningglory (Ipomoea hederacea), velvetleaf (Abutilon theophrasti), barnyardgrass (Echinochloa crus-galli) and blackgrass (Alopecurus myosuroides). These test plants were grown in a greenhouse for 9 days. Then, each of compounds 1-1,2-1, 3-1,3-2, 3-11 and 3-12 was formulated into an emulsifiable concentrate according to Formulation Example 2 and then diluted to the prescribed amount with water containing a spreading agent and the dilution was uniformly sprayed over the foliage of the test plants with a sprayer at a rate of 1000 liters per hectare After the application, the test plants were grown in the greenhouse for 7 days, and the herbicidal activity of the applied composition was determined.

The subject of assay [7] is barnyardgrass (Echinochloa crus-galli). The assay is described as above. The conditions noted are these: foliar spray, 125 g/ha, 7 days after application. On the procedure: as §2
For assay [8], the system named is blackgrass (Alopecurus myosuroides). Described as above. The conditions noted are these: foliar spray, 125 g/ha, 7 days after application. How it is done: as §2
The test system of assay [9] is velvetleaf (Abutilon theophrasti). The description is as above. The conditions noted are these: foliar spray, 125 g/ha, 7 days after application. How it is done:
as §2

For assay [10], the system named is Ivyleaf morningglory (Ipomoea hederacea). As to the kind of experiment: Test Example 4: soil surface treatment, herbicidal activity. The conditions noted are these: sprayed over the surface of the soil, 2000 g/ha, 7 days after application. The source says: (§3) A cylindrical plastic pot having a diameter of 10 cm and a depth of 10 cm was filled with soil and then seeded with Ivyleaf morningglory (Ipomoea hederacea), velvetleaf (Abutilon theophrasti), barnyardgrass (Echinochloa crus-galli) and blackgrass (Alopecurus myosuroides). Then, each of the compounds 3-2,3-11, 3-12, 3-16, 3-20 and 3-198 was formulated into an emulsifiable concentrate according to Formulation Example 2 and then diluted to the prescribed amount with water, and the dilution was uniformly sprayed over the surface of the soil with a sprayer at a rate of 1000 liters per hectare. After the application, the test plants were grown in the greenhouse for 7 days, and the herbicidal activity of the applied composition was examined.

Assay [11] relates to barnyardgrass (Echinochloa crus-galli). The description is as above. The conditions noted are these: sprayed over the surface of the soil, 2000 g/ha, 7 days after application.
Description: as §3

The test system of assay [12] is blackgrass (Alopecurus myosuroides). The description is as above. The conditions noted are these: sprayed over the surface of the soil, 2000 g/ha, 7 days after application.
Description: as §3

Assay [13] concerns velvetleaf (Abutilon theophrasti). Described as above. The conditions noted are these: sprayed over the surface of the soil, 2000 g/ha, 7 days after application.
Description: as §3

In the case of `COC(=O)COc1ccccc1Oc1cc(-n2c(=O)cc(C(F)(F)F)n(C)c2=O)c(F)cc1C#N` [Compound 4-22], the “Herbicidal activity BC” value in assay [1] (0.33 g/ha) worked out at 8; in assay [1] (1 g/ha) it was 8; in assay [1] (3.3 g/ha) it was 9. The “Herbicidal activity GF” value came to 7 in [2] (0.33 g/ha), 8 in assay [2] (1 g/ha) and 10 in assay [2] (3.3 g/ha). The “Herbicidal activity B” value in assay [3] (0.33 g/ha) worked out at 8; in assay [3] (1 g/ha), 9; in [3] (3.3 g/ha), 9. In addition, the “Herbicidal activity J” value in assay [4] (0.33 g/ha) was determined as 8; in assay [4] (1 g/ha), 8; in [4] (3.3 g/ha), 9. In addition, the “Herbicidal activity LC” value in assay [5] (0.33 g/ha), in assay [5] (1 g/ha) and in [5] (3.3 g/ha) was 9 in each case. Besides, the entries for the “Herbicidal activity W” value in the assay on wild oat (Avena fatua) (0.33 g/ha), in the assay on wild oat (Avena fatua) (1 g/ha) and in the assay on wild oat (Avena fatua) (3.3 g/ha) were 8, 9 and 10, respectively.
As to `COC(=O)COc1ccccc1Oc1cc(-n2c(=O)cc(C(F)(F)F)n(C)c2=O)c(F)cc1Cl` [Compound 3-11, Methyl [2-{2-chloro-4-fluoro-5-[3-methyl-2,6-dioxo-4-(trifluoromethyl)-1,2,3,6-tetrahydropyrimidin-1-yl]phenoxy}phenoxy]acetate], the “Herbicidal activity BC” value in assay [1] (0.33 g/ha) came to 8; in assay [1] (1 g/ha), 9; in assay [1] (3.3 g/ha), 10. Moreover, the “Herbicidal activity GF” value is on record as 8 in assay [2] (0.33 g/ha), 9 in assay [2] (1 g/ha) and 9 in assay [2] (3.3 g/ha). Moreover, the “Herbicidal activity B” value in assay [3] (0.33 g/ha) was found to be 7; in assay [3] (1 g/ha), 8; in assay [3] (3.3 g/ha), 10. Further, the “Herbicidal activity J” value is listed as 8 in assay [4] (0.33 g/ha), 9 in assay [4] (1 g/ha) and 10 in assay [4] (3.3 g/ha). The “Herbicidal activity LC” value was 8 in assay [5] (0.33 g/ha), 9 in [5] (1 g/ha) and 10 in assay [5] (3.3 g/ha). For the same compound, the entries for the “Herbicidal activity W” value with wild oat (Avena fatua) (0.33 g/ha), with wild oat (Avena fatua) (1 g/ha) and in the assay with wild oat (Avena fatua) (3.3 g/ha) were 8, 10 and 10, respectively. Moreover, the “growth of Ivyleaf morningglory” value in assay [6] is “completely controlled”. The growth of barnyardgrass result in [7] is given as “completely controlled”. In assay [8], the growth of blackgrass entry is on record as “completely controlled”. The growth of velvetleaf entry in assay [9] is listed as “completely controlled”. In assay [10], the “emergence of Ivyleaf morningglory” value is reported as “completely controlled”. The emergence of barnyardgrass result in [11] was “completely controlled”. Also, the emergence of blackgrass result in [12] is on record as “completely controlled”. The emergence of velvetleaf entry in assay [13] is “completely controlled”.
`CCOC(=O)COc1ccccc1Oc1cc(-n2c(=O)cc(C(F)(F)F)n(C)c2=O)c(F)cc1Cl` [Compound 3-12, Ethyl [2-{2-chloro-4-fluoro-5-[3-methyl-2,6-dioxo-4-(trifluoromethyl)-1,2,3,6-tetrahydropyrimidin-1-yl]phenoxy}phenoxy]acetate]: the “growth of Ivyleaf morningglory” value in [6] was “completely controlled”. In addition, the growth of barnyardgrass result in assay [7] is on record as “completely controlled”. In addition, the growth of blackgrass entry in assay [8] is “completely controlled”. Besides, in [9], the growth of velvetleaf entry was “completely controlled”. Moreover, the “emergence of Ivyleaf morningglory” value in [10] is on record as “completely controlled”. Further, the emergence of barnyardgrass result in assay [11] was “completely controlled”. Further, the emergence of blackgrass result in assay [12] is “completely controlled”. Moreover, the emergence of velvetleaf entry in assay [13] is “completely controlled”.
Regarding `CCOC(=O)C(C)Oc1ccccc1Oc1cc(-n2c(=O)cc(C(F)(F)F)n(C)c2=O)c(F)cc1Cl` (stereo not drawn) [Compound 3-2, Ethyl 2-[2-{2-chloro-4-fluoro-5-[3-methyl-2,6-dioxo-4-(trifluoromethyl)-1,2,3,6-tetrahydropyrimidin-1-yl]phenoxy}phenoxy]propionate], in assay [6], the “growth of Ivyleaf morningglory” value is “completely controlled”. In addition, the growth of barnyardgrass entry in [7] is “completely controlled”. The growth of blackgrass entry in assay [8] was “completely controlled”. Besides, in assay [9], the growth of velvetleaf result was “completely controlled”. In addition, the “emergence of Ivyleaf morningglory” value in assay [10] is “completely controlled”. Besides, the emergence of barnyardgrass entry in assay [11] is given as “completely controlled”. Further, the emergence of blackgrass entry in assay [12] is “completely controlled”. In [13], the emergence of velvetleaf entry was “completely controlled”.
`COc1ccccc1Oc1cc(-n2c(=O)cc(C(F)(F)F)n(C)c2=O)c(F)cc1C#N` [B, reference compound]: the “Herbicidal activity BC” value in assay [1] (0.33 g/ha) was found to be 2; in assay [1] (1 g/ha), 6; in assay [1] (3.3 g/ha), 8. Also, the figures for the “Herbicidal activity GF” value in assay [2] (0.33 g/ha), in assay [2] (1 g/ha) and in assay [2] (3.3 g/ha) were 3, 5 and 7, respectively. Also, the “Herbicidal activity B” value in [3] (0.33 g/ha) came out at 2; in assay [3] (1 g/ha), 6; in assay [3] (3.3 g/ha) it was 7. For the same compound, the “Herbicidal activity J” value came out at 2 in assay [4] (0.33 g/ha), 7 in assay [4] (1 g/ha) and 7 in assay [4] (3.3 g/ha). In addition, the entries for the “Herbicidal activity LC” value in assay [5] (0.33 g/ha), in [5] (1 g/ha) and in assay [5] (3.3 g/ha) were 3, 7 and 8, respectively. Also, the entries for the “Herbicidal activity W” value in the assay on wild oat (Avena fatua) (0.33 g/ha), in the assay with wild oat (Avena fatua) (1 g/ha) and in the assay with wild oat (Avena fatua) (3.3 g/ha) were 2, 5 and 7, respectively.
On to `COC(=O)c1ccccc1Oc1cc(-n2c(=O)cc(C(F)(F)F)n(C)c2=O)c(F)cc1C#N` [C, reference compound], for which the figures for the “Herbicidal activity BC” value in assay [1] (0.33 g/ha), in [1] (1 g/ha) and in [1] (3.3 g/ha) were 2, 3 and 6, respectively. Besides, the “Herbicidal activity GF” value in [2] (0.33 g/ha) worked out at 1; in assay [2] (1 g/ha) it was 3; in assay [2] (3.3 g/ha) it was 4. The “Herbicidal activity B” value in assay [3] (0.33 g/ha) was found to be 1; in [3] (1 g/ha), 4; in assay [3] (3.3 g/ha), 6. Moreover, the entries for the “Herbicidal activity J” value in assay [4] (0.33 g/ha), in assay [4] (1 g/ha) and in assay [4] (3.3 g/ha) were 2, 4 and 6, respectively. For the same compound, the “Herbicidal activity LC” value in assay [5] (0.33 g/ha) turned out to be 2; in assay [5] (1 g/ha) it was 3; in [5] (3.3 g/ha) it was 5. The “Herbicidal activity W” value in the assay on wild oat (Avena fatua) (0.33 g/ha) came out at 1; in the assay with wild oat (Avena fatua) (1 g/ha) it was 3; with wild oat (Avena fatua) (3.3 g/ha) it was 5.
